Source: patent EP3860956B1, “PROCESS FOR MANUFACTURING N-ALKYL-DIPHOSPHONATE AMINO AMINOACIDS” (Italmatch Chemicals S.p.A., priority 2018, dated 2020)
Like-named read-outs stand apart in the source and are kept apart here.

How the values were obtained:
[1] = Thermal stability test in synthetic North Sea water; format: physicochemical; conditions: 1% active acid in synthetic North Sea water, pH 5.5, 140 °C, one week, 31P NMR; percentage by weight
Description: The test is carried out as follows: an aqueous solution containing 20% of scale inhibitor active acid at pH 5.5 (solution 1) is prepared. After that, synthetic North Sea water having a pH of 5.5 (solution 2) is prepared. A 1% scale inhibitor active acid sample is prepared by mixing 1 g of solution 1 with 19 g of solution 2. The so prepared sample is placed in a closed pressure resistant tube and kept in an oven at minimum 140 °C for one week. Finally, after one week, the sample is analyzed by means of 31P NMR spectroscopy.

[2] = Brine and sea water compatibility test (Ca tolerance); format: physicochemical; conditions: synthetic North Sea water pH 5.5, 90 °C, 24 hours
Description: Scale inhibitors, especially if they have anionic moieties, may form complexes and precipitate with hardness salts, for example calcium, before they can fulfill their dispersing and chelating functions. Compatibility tests are carried out to check if complexation happens or not. If compatibility is poor, not only precipitation occurs, but also overall scale formation becomes faster.

[3] = Barium sulphate scale inhibition; conditions: minimum phosphonate concentration to inhibit 100% BaSO4 scale; 50/50 North Sea water/Formation water, pH 6, 22 hours at 90 °C, ICP-MS
Description: To evaluate the efficiency of both scale inhibitors according to the present invention and comparative ones in preventing barium scale inhibition in oil field scaling conditions, the present test is carried out determining the amount of BaSO4 that has precipitated after 22 hours at 90 °C, in a 50/50 mixture of synthetic North Sea water
The amount of soluble Ba ions is determined by inductively coupled plasma mass spectrometry (ICP-MS).
The present test is carried out as follows: • synthetic North Sea and Formation waters are prepared at pH 6. These water solutions are preheated at 90 °C before starting the test. An acetic acid/sodium acetate buffer is prepared and added to the North Sea water in order to give the required pH; • - 15, 30, 50, 70 and 100 ppm of scale inhibitor active phosphonic acid is added to a glass bottle; • - 50 ml of North Sea water is added to this glass bottle while stirring. 50 ml of Formation water is then added to this glass bottle; • - one blank solution is prepared, by mixing 50 ml of North Sea water with 50 ml of Formation water; • - sample bottles were put in an oven for 22 hours at 90 °C; • - after 22 hours, 3 ml of each test solution was taken from the surface, was filtered through a 0.45 µm Millipore filter and added to a stabilizing solution.
The stabilized samples were analyzed by ICP-MS for Ba.
Ba scale inhibition stands for the minimum phosphonate concentration to inhibit 100% BaSO4 scale.
Note that the 100% phosphonate efficiencies for BaSO4 scale inhibition are calculated as follows: % Scale inhibition = (V1−V0/V2−V0) × 100 [formula] wherein V0 = ppm Ba found in the blank solution; V1 = ppm Ba found in the solution with the scale inhibitor; and V2 = ppm Ba present in the Formation water.

[4] = Biodegradability, OECD 306 closed bottle marine test; conditions: after 14 days; 2 ppm of pure active solid
Description: Biodegradation tests are performed using the standard "closed bottle" marine test methods in accordance with OECD Guidelines 306. OECD306 is a test that measure biodegradation indirectly through the determination of the amount of dissolved oxygen in the medium. The measurement obtained are used to estimate the biodegradability (BOD) during the process.
The measured value of the BOD need to be corrected by dividing either with an experimental value of COD or a ThOD and multiply by 100% to get the biodegradability value.
OECD306 closed bottle test for was performed with a similar test set-up.

[5] = Calcium carbonate scale inhibition; conditions: 2 ppm active phosphonic acid; 240 ppm Ca2+, 732 ppm HCO3-, pH 8.7 buffer, 50 °C, 22 hours
Description: To evaluate the efficiency of both scale inhibitors according to the present invention and comparative ones in preventing calcium carbonate scale in industrial water treatment conditions, the present test is carried out determining the amount of CaCO3 that has precipitated after 22 hours at 50 °C in a 50/50 mixture of cationic and anionic waters with the test phosphonates at three different concentrations. The amount of soluble Ca ions is analyzed by titration. […]
Put the sample bottles in an oven for 22 hours at 50 °C. […] The phosphonate efficiency as CaCO3 scale inhibition is then calculated using the equation: % CaCO3 inhibition = (Cat−Cab) × 100)÷(Cai−Cab) [formula] wherein Cat = calcium remaining in solution of the t sample, where the dilution with HCl has been corrected (Cat=(Caf)×Wta/Wtsam); Cab = Calcium remaining in the blank (i.e. glass bottle wherein no phosphonate was added; under these condition corresponds to minimum of 80% of calcium precipitated as CacO3); and Cai = Total calcium present in a reference t sample (i.e. a sample t in which the hardness brine has simply been diluted with water to get the same final volume).

[6] = after 28 days; 2.0 ppm of pure active solid or 5.5 ppm as commercial product; previous study; cited from earlier work

Row | Biodegradability [4] | % CaCO3 inhibition [5] | Structure (SMILES) | Decomposition (%) [1] | Ca Tolerance , visual observation ([2]; 100 ppm active acid) | Ca Tolerance , visual observation ([2]; 1000 ppm active acid) | Ca Tolerance , visual observation ([2]; 10000 ppm active acid) | Ca Tolerance , visual observation ([2]; 50000 ppm active acid) | 100% Ba scale inhibition [3] | Biodegradability [6]
1 |  |  | O=P(O)(O)CN(CCO)CP(=O)(O)O [HEMPA, hydroxyethylamino-di(methylene phosphoric acid)] | 19.0% |  |  |  |  |  | 
2 |  |  | O=P(O)(O)CN(CCN(CP(=O)(O)O)CP(=O)(O)O)CCN(CP(=O)(O)O)CP(=O)(O)O [DTMPA, [[(phosphonomethyl)imino]bis [2,1-ethanediylnitrilobis (methylene)]] tetrakis-phosphonic acid] | 23.6% | clear | turbid | turbid | clear | 15 ppm | 
3 | 31.5% | 94% @ 2 ppm | O=C(O)CCCCCNC(P(=O)(O)O)P(=O)(O)O [Compound of Formula II, 6-((diphosphonomethyl)amino)hexanoic acid] | 3.0% | clear | turbid | turbid | clear | 50 ppm | 
4 |  |  | CC(O)(P(=O)(O)O)P(=O)(O)O [HEDP, 1-hydroxy ethylidene-1,1-diphosphonic acid] | 2.3% | clear | turbid | turbid | clear | 30ppm | 
5 |  |  | O=P(O)(O)CN(CP(=O)(O)O)CP(=O)(O)O [ATMP, aminotris(methylenephosphonic acid)] | 12.5% |  |  |  |  |  | 
6 |  |  | O=C(O)CCCCCN(CP(=O)(O)O)CP(=O)(O)O |  |  |  |  |  | (no inhibition on Ba) | 77.15%
